The source made the active and inactive calls. The calls are words filed in the database; no cut-off is given here. A value given as a limit tells only on which side of the number the result lay.

The target in the first series is T1, Protein smoothened (Homo sapiens, UniProt Q99835). Briefly: Displacement of [125I]-PA cyclopamine from smoothened expressed in african green monkey COS-1 cells after 10 mins by autoradiography. The class given is cell-based.
T1 sequence (Q99835 whole entry): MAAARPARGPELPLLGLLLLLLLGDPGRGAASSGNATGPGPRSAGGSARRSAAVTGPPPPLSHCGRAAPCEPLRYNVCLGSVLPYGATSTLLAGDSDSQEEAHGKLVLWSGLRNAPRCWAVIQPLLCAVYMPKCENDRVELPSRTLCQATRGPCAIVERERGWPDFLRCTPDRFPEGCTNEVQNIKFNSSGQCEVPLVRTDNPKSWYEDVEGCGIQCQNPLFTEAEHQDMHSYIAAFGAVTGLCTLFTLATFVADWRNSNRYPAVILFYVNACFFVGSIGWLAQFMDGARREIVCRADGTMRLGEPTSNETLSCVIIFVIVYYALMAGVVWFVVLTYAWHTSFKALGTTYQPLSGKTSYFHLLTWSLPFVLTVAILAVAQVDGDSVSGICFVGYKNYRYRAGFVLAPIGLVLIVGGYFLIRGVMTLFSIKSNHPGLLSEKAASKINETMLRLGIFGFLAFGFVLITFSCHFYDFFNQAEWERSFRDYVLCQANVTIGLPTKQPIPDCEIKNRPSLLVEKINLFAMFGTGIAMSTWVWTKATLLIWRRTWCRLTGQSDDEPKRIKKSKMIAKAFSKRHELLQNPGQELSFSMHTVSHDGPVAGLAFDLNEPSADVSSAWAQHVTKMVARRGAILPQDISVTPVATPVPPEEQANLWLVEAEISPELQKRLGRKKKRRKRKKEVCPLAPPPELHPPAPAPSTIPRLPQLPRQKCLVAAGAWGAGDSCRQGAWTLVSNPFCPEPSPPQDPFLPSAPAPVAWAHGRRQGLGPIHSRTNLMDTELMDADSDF
Conditions: not given
For orientation: In a radioligand displacement assay an active substance lowers the binding of a labelled ligand.
The IC50 is the concentration at which inhibition is half-maximal. Compound `O=C(Nc1ccccc1-c1ccccc1)c1ccc2c(c1)C(=O)N([C@H]1C[C@@H]1c1ccccc1)C2=O` came in with an IC50 of 3.2 µM. The same measure, in the same setting: then `O=C(Nc1ccccc1-c1ccsc1)N1CCN2C(=O)N([C@H]3C[C@@H]3c3ccccc3)C(=O)C2C1` (mixture of isomers), with 0.22 µM. The same measure, in the same setting: the value for `O=C(Nc1ccccc1-c1cnco1)N1CCN2C(=O)N([C@H]3C[C@@H]3c3ccccc3)C(=O)C2C1` (mixture of isomers) was 1.8 µM; that for `O=C(Nc1cccnc1-c1ccccc1)N1CCN2C(=O)N([C@H]3C[C@@H]3c3ccccc3)C(=O)C2C1` (mixture of isomers) was 0.012 µM; that for `O=C(Nc1ccncc1-c1ccccc1)N1CCN2C(=O)N([C@H]3C[C@@H]3c3ccccc3)C(=O)C2C1` (mixture of isomers) was 0.088 µM. The same measure, in the same setting: the value for `O=C(Nc1cccnc1-c1ccc(Cl)cc1)N1CCN2C(=O)N([C@H]3C[C@@H]3c3ccccc3)C(=O)C2C1` (mixture of isomers) was 0.68 µM. `O=C(Nc1cccnc1-c1cccc(Cl)c1)N1CCN2C(=O)N([C@H]3C[C@@H]3c3ccccc3)C(=O)C2C1` (mixture of isomers) came in with an IC50 of 0.019 µM. Still for that read-out and setting: then `O=C(Nc1cccnc1-c1ccccc1Cl)N1CCN2C(=O)N([C@H]3C[C@@H]3c3ccccc3)C(=O)C2C1` (mixture of isomers), with 0.14 µM. The compound `O=C(Nc1cccnc1-c1cccc(C(F)(F)F)c1)N1CCN2C(=O)N([C@H]3C[C@@H]3c3ccccc3)C(=O)C2C1` (mixture of isomers) showed an IC50 of 0.16 µM.

`COc1cccc(-c2ncccc2NC(=O)N2CCN3C(=O)N([C@H]4C[C@@H]4c4ccccc4)C(=O)C3C2)c1` (mixture of isomers): the IC50 was 0.047 µM. As to `O=C(Nc1cccnc1-c1ccsc1)N1CCN2C(=O)N([C@H]3C[C@@H]3c3ccccc3)C(=O)C2C1` (mixture of isomers), the IC50 was 0.088 µM.

In turn, `Cn1cc(-c2ncccc2NC(=O)N2CCN3C(=O)N([C@H]4C[C@@H]4c4ccccc4)C(=O)C3C2)cn1` (mixture of isomers) yielded an IC50 of 0.62 µM. `O=C(Nc1ccnn1-c1ccccc1)N1CCN2C(=O)N([C@H]3C[C@@H]3c3ccccc3)C(=O)C2C1` (mixture of isomers): the IC50 turned out to be 0.013 µM.

Compound `O=C(Nc1ccccc1-c1ccccc1)N1CCN2C(=O)N([C@H]3C[C@@H]3c3ccccc3)CC2C1` (mixture of isomers) displayed an IC50 of 1.4 µM. The compound `O=C(Nc1ccnn1-c1ccccc1)N1CCN2C(=O)N([C@H]3C[C@@H]3c3ccccc3)C(=O)CC2C1` (mixture of isomers) returned an IC50 of 7.8 µM. The same measure, in the same setting: the value for `O=C(Nc1ccnn1-c1ccccc1)N1CCN2CC(=O)N([C@H]3C[C@@H]3c3ccccc3)C(=O)C2C1` (mixture of isomers) was 5.1 µM; that for `COC(=O)N1CCN2C(=O)N([C@H]3C[C@@H]3c3ccccc3)C(=O)C2C1` (mixture of isomers) was > 1.5 µM; that for `CC(=O)N1CCN2C(=O)N([C@H]3C[C@@H]3c3ccccc3)C(=O)C2C1` (mixture of isomers) was > 1.5 µM.

With `O=C(C1CCCCC1)N1CCN2C(=O)N([C@H]3C[C@@H]3c3ccccc3)C(=O)C2C1` (mixture of isomers), the IC50 is > 1.5 µM.

`CC(C)(C)C(=O)N1CCN2C(=O)N([C@H]3C[C@@H]3c3ccccc3)C(=O)C2C1` (mixture of isomers): the IC50 worked out at 4 µM. Take `O=C1C2CN(CC3CCCCC3)CCN2C(=O)N1[C@H]1C[C@@H]1c1ccccc1` (mixture of isomers): the IC50 was > 2.5 µM. On the same count and under the same terms, then `CN(C)C(=O)N1CCN2C(=O)N([C@H]3C[C@@H]3c3ccccc3)C(=O)C2C1` (mixture of isomers), with > 2.5 µM; and `O=C(NCc1ccco1)N1CCN2C(=O)N([C@H]3C[C@@H]3c3ccccc3)C(=O)C2C1` (mixture of isomers), with > 2.5 µM. `O=C(NC1CCCCC1)N1CCN2C(=O)N([C@H]3C[C@@H]3c3ccccc3)C(=O)C2C1` (mixture of isomers) gave an IC50 of 0.25 µM. Same read-out and setting: the value for `CCCCCCNC(=O)N1CCN2C(=O)N([C@H]3C[C@@H]3c3ccccc3)C(=O)C2C1` (mixture of isomers) was 0.38 µM; that for `CCCCN(CCCC)C(=O)N1CCN2C(=O)N([C@H]3C[C@@H]3c3ccccc3)C(=O)C2C1` (mixture of isomers) was 0.92 µM; that for `O=C(Nc1cccc(Cl)c1Cl)N1CCN2C(=O)N([C@H]3C[C@@H]3c3ccccc3)C(=O)C2C1` (mixture of isomers) was 0.22 µM. Same read-out and setting: the value for `O=C(Nc1cc(Cl)cc(Cl)c1)N1CCN2C(=O)N([C@H]3C[C@@H]3c3ccccc3)C(=O)C2C1` (mixture of isomers) was 0.28 µM; that for `O=C(Nc1c(Cl)cccc1Cl)N1CCN2C(=O)N([C@H]3C[C@@H]3c3ccccc3)C(=O)C2C1` (mixture of isomers) was 0.28 µM; that for `O=C(Nc1ccc(F)cc1Cl)N1CCN2C(=O)N([C@H]3C[C@@H]3c3ccccc3)C(=O)C2C1` (mixture of isomers) was 1.1 µM. As for `O=C(Nc1ccc2c(c1)OCO2)N1CCN2C(=O)N([C@H]3C[C@@H]3c3ccccc3)C(=O)C2C1` (mixture of isomers), the IC50 amounted to 0.7 µM.

Turning to `O=C(Nc1ccccc1-c1ccccc1)N1CCN2C(=O)N([C@H]3C[C@@H]3c3ccccc3)C(=O)C2C1` (mixture of isomers), the IC50 was 0.094 µM. On the same count and under the same terms, the value for `CN(C(=O)N1CCN2C(=O)N([C@H]3C[C@@H]3c3ccccc3)C(=O)C2C1)c1ccccc1-c1ccccc1` (mixture of isomers) was 1 µM; that for `O=C(Nc1ccc(-c2ccccc2)cc1)N1CCN2C(=O)N([C@H]3C[C@@H]3c3ccccc3)C(=O)C2C1` (mixture of isomers) was 0.89 µM.

On to `O=C(Nc1ccccc1-c1ccccc1)N1CCN2C(=O)N([C@H]3C[C@H]3c3ccccc3)C(=O)C2C1` (mixture of isomers), for which the IC50 was > 2.5 µM. Consider `COC(=O)c1cccc(NC(=O)N2CCN3C(=O)N([C@H]4C[C@@H]4c4ccccc4)C(=O)C3C2)c1Cl` (mixture of isomers), for which the IC50 was 1.1 µM. Still for that read-out and setting: the value for `Cc1c(Cl)cccc1NC(=O)N1CCN2C(=O)N([C@H]3C[C@@H]3c3ccccc3)C(=O)C2C1` (mixture of isomers) was 0.46 µM; that for `Cc1cccc(Cl)c1NC(=O)N1CCN2C(=O)N([C@H]3C[C@@H]3c3ccccc3)C(=O)C2C1` (mixture of isomers) was 0.77 µM; that for `O=C(Nc1ccc(F)c(Cl)c1Cl)N1CCN2C(=O)N([C@H]3C[C@@H]3c3ccccc3)C(=O)C2C1` (mixture of isomers) was 0.48 µM. As for `O=C(Nc1c(Cl)cc(F)cc1Cl)N1CCN2C(=O)N([C@H]3C[C@@H]3c3ccccc3)C(=O)C2C1` (mixture of isomers), the IC50 worked out at 0.31 µM. `O=C(Nc1c(Cl)cc(OC(F)(F)F)cc1Cl)N1CCN2C(=O)N([C@H]3C[C@@H]3c3ccccc3)C(=O)C2C1` (mixture of isomers) gave an IC50 of 0.13 µM.

Turning to `O=C(Nc1c(Cl)cc(C(F)(F)F)cc1Cl)N1CCN2C(=O)N([C@H]3C[C@@H]3c3ccccc3)C(=O)C2C1` (mixture of isomers), the IC50 came to 0.28 µM.

As for `CS(=O)(=O)c1cc(Cl)c(NC(=O)N2CCN3C(=O)N([C@H]4C[C@@H]4c4ccccc4)C(=O)C3C2)c(Cl)c1` (mixture of isomers), the IC50 amounted to 0.077 µM.

`N#Cc1cc(Cl)c(NC(=O)N2CCN3C(=O)N([C@H]4C[C@@H]4c4ccccc4)C(=O)C3C2)c(Cl)c1` (mixture of isomers) had an IC50 of 0.062 µM. On to `Cc1cc(C#N)cc(Cl)c1NC(=O)N1CCN2C(=O)N([C@H]3C[C@@H]3c3ccccc3)C(=O)C2C1` (mixture of isomers), for which the IC50 worked out at 0.084 µM. The same measure, in the same setting: then `CC(C)c1ccccc1NC(=O)N1CCN2C(=O)N([C@H]3C[C@@H]3c3ccccc3)C(=O)C2C1` (mixture of isomers), with 0.21 µM; and `O=C(Nc1ccccc1C(F)(F)F)N1CCN2C(=O)N([C@H]3C[C@@H]3c3ccccc3)C(=O)C2C1` (mixture of isomers), with 0.89 µM. Still for that read-out and setting: then `N#Cc1ccccc1NC(=O)N1CCN2C(=O)N([C@H]3C[C@@H]3c3ccccc3)C(=O)C2C1` (mixture of isomers), with > 2.5 µM; and `COc1ccccc1NC(=O)N1CCN2C(=O)N([C@H]3C[C@@H]3c3ccccc3)C(=O)C2C1` (mixture of isomers), with 1.7 µM; and `O=C(Nc1ccccc1-c1ccccc1)N1CCN2C(=O)N(CCc3ccccc3)C(=O)C2C1` (racemic), with 2 µM. On the same count and under the same terms, the value for `O=C(Nc1ccccc1-c1ccccc1)N1CCN2C(=O)N(Cc3ccccc3)C(=O)C2C1` (racemic) was > 2.5 µM; that for `O=C(Nc1ccccc1-c1ccccc1)N1CCN2C(=O)N(c3cccc4ccccc34)C(=O)C2C1` (racemic) was > 2.5 µM; that for `O=C(Nc1ccccc1-c1ccccc1)N1CCN2C(=O)N(c3cccc(-c4ccccc4)c3)C(=O)C2C1` (racemic) was > 2.5 µM. With `CCCCN1C(=O)C2CN(C(=O)Nc3ccccc3-c3ccccc3)CCN2C1=O` (racemic), the IC50 is > 2.5 µM. With `O=C(Nc1ccccc1-c1ccccc1)N1CCN2C(=O)N(C3CC34CCCCC4)C(=O)C2C1` (racemic), the IC50 is > 2.5 µM.

Take `O=C(Nc1ccccc1-c1ccccc1)N1CCN2C(=O)N([C@H]3C[C@H](c4ccccc4)C3)C(=O)C2C1` (mixture of isomers): the IC50 was found to be 0.44 µM. Still for that read-out and setting: then `O=C(Nc1ccccc1-c1ccccc1)N1CCN2C(=O)N(C3Cc4ccccc4C3)C(=O)C2C1` (racemic), with 0.88 µM.

Tested on in the next series: not listed separately
Briefly: Intrinsic clearance in rat liver microsomes assessed per mg of protein. The class given is ADME, Microsome.
Conditions: not given
A general note: Liver microsomes are a subcellular fraction often used to study metabolism.
What is called microsomal CLint is the capacity of the preparation to metabolise the compound, expressed as a volume cleared per time. As for `O=C(Nc1cccc(Cl)c1Cl)N1CCN2C(=O)N([C@H]3C[C@@H]3c3ccccc3)C(=O)C2C1` (mixture of isomers), the microsomal CLint amounted to 180 µL/min/mg. Same read-out and setting: then `O=C(Nc1ccccc1-c1ccccc1)N1CCN2C(=O)N([C@H]3C[C@@H]3c3ccccc3)C(=O)C2C1` (mixture of isomers), with > 300 µL/min/mg.

In the next series the test system is Shh Light II. The series is described as follows: Cytotoxicity against mouse Shh Light2 cells assessed as cell viability at 2.5 uM. The class given is cell-based.
Conditions: not given
On to `CN(C)C(=O)N1CCN2C(=O)N([C@H]3C[C@@H]3c3ccccc3)C(=O)C2C1` (mixture of isomers), for which the Activity result was “Non-toxic”.

Tested on in another series: not listed separately
Briefly: Growth inhibition of Ptch +/- mouse medulloblastoma cells. The series is classed as functional. To be noted: Medulloblastoma cell.
By CC50 is commonly meant the concentration giving 50% cytotoxicity. Consider `O=C(Nc1cccc(Cl)c1Cl)N1CCN2C(=O)N([C@H]3C[C@@H]3c3ccccc3)C(=O)C2C1` (mixture of isomers), for which it took 0.0033 µM to reach half-maximal cytotoxicity (CC50).

Take `O=C(Nc1ccccc1-c1ccccc1)N1CCN2C(=O)N([C@H]3C[C@@H]3c3ccccc3)C(=O)C2C1` (mixture of isomers): the CC50 was determined as 0.012 µM.

For the next series, the target named is T1, Protein smoothened. Particulars: Shh Light II; 2 uM.
Description: Antagonist activity at smoothened expressed in mouse Shh Light2 cells co-expressing Gli-dependent reporter gene assessed as inhibition of Hh pathway at 2 uM
Regarding `CN(C)C(=O)N1CCN2C(=O)N([C@H]3C[C@@H]3c3ccccc3)C(=O)C2C1` (mixture of isomers), the inhibition entry is “Active”.

The record behind these values is ChEMBL document CHEMBL1806461, “Identification of MK-5710 ((8aS)-8a-methyl-1,3-dioxo-2-[(1S,2R)-2-phenylcyclopropyl]-N-(1-phenyl-1H-pyrazol-5-yl)hexahydroimid azo[1,5-a]pyrazine-7(1H)-carboxamide), a potent smoothened antagonist for use in Hedgehog pathway dependent malignancies, part 1” (Bioorg Med Chem Lett, 2011).
